Experimental data from paper PMC6983213, “Combining Chalcones with Donepezil to Inhibit Both Cholinesterases and Aβ Fibril Assembly” (Molecules, 2019).
Where “and” joins values, the source holds several entries; their conditions need not be identical. Identical values can stand only once. Like-named read-outs stand apart in the source and are kept apart here.

What was measured:
[1] = target: EeAChE (AChE from Electrophorus electricus) (Electrophorus electricus, UniProt O42275); assay: biochemical; conditions: for IC50: Ellman's method, pH 8.0, 25 °C, triplicate, ± SDEV, read-out: Inhibition (IC50) of EeAChE; for selectivity index (SI): based on IC50 values against EeAChE and EfBChE
Method: (§1) The ChE inhibition assays were performed as previously described. The 1,3- and 1,4-chalcone-donepezil hybrids (0.1 nM to 100 μM) were dissolved in sodium phosphate buffer ((100 μL), 0.1 M, pH 8.0). […] All assays were performed in triplicate. The data was plotted as a sigmoidal curve and IC50 values were calculated using SigmaPlot 14.0 (Systat Software, San Jose, CA, USA).

[2] = target: EfBChE (BChE from Equus ferus) (Equus caballus, UniProt P81908); assay: biochemical; format: biochemical; conditions: Ellman's method, pH 8.0, 25 °C, triplicate, ± SDEV; read-out: Inhibition (IC50) of EfBChE
Method: as §1

[3] = target: T1, N-biotinyl-Aβ(1–42) (bioAβ42) oligomer assembly (Homo sapiens, UniProt P05067); assay: biochemical; conditions: for bioAβ42 oligomer assembly inhibition (in words): 1.56 to 50 μM, alone or in 1:1 / 1:1:1 mixtures; for EC50: concentration range 50 to 1.56 μM, duplicate, n = 3 independent experiments, ± SDEV
T1 construct: N-biotinyl Aβ(1–42) (bioAβ42) was purchased from Anaspec; purchased Anaspec (Fremont, CA, USA) AS-23523-05
Method: We first examined the effect of the synthesized 1,3- and 1,4-chalcone-donepezil hybrids 15a–15f and 16a–16f on the assembly of N-biotinyl-Aβ(1–42) (bioAβ42) monomers into oligomers. We quantified the assembly of bioAβ42 into soluble oligomers by using an ELISA assay in which the soluble oligomers were captured on NeutrAvidin^TM-coated ELISA plates and detected with streptavidin-horseradish peroxidase and colorimetric readout (Figure 3).
The plates were then stored in their blocked form at 4 °C prior to use for the oligomer assembly and dissociation assays.
The assembly of bioAβ42 into soluble oligomers was quantified with an ELISA assay in which the soluble oligomers were captured with the NeutrAvidin^TM coating the ELISA plates. The bound oligomers were detected with streptavidin-horseradish peroxidase (SA-HRP). […] Below, please find the details of the three steps (Steps 1–3) used for the oligomer assembly assay.
Step 1: Preparation of monomeric bioAβ42. For a low background, it was essential to rigorously pretreat the bioAβ42 peptide to convert (disaggregate) the multimeric species that form upon storage in the solid state, or even frozen in 1,1,1,3,3,3-hexafluoroisopropanol (HFIP) to monomers. The required amount of stock bioAβ42 peptide (0.5 mg dissolved at 1 mg/mL in HFIP) was pipetted into a polypropylene microfuge tube, dried to a thin film under a gentle air or N2 stream, and then disaggregated for 10 min at rt in neat trifluoroacetic acid (TFA). After removal of the TFA by drying with an air or N2 stream, DMSO was added to produce a 2.3 μg/mL (50×) stock solution.
Step 2: Assembly of bioAβ42 oligomers. 2 μL of disaggregated monomeric 50× bioAβ42 peptide in DMSO (prepared in Step 1) was pipetted into the bottom of each well of a polypropylene 96-well plate. […] The 96-well plate was sealed and incubated at rt for 30 min without shaking. The bioAβ42 oligomer assembly was stopped by adding 50 μL of 0.3% Tween 20 v/v in distilled H2O.
Step 3: Measurement of bioAβ42 oligomers. […] The 96-well plate was then sealed and incubated for 2 h while shaking at 150 rpm at rt. […] The plate was sealed and incubated for 1 h while shaking at 150 rpm at rt. The plate was washed as previously described, and 100 μL/well of HRP substrate (i.e., 1 mM:0.07 mM/tetramethylbenzidine:H2O2) in 0.2 M citrate buffer, pH 4.0 was added. The plate was incubated at rt for 5 to 10 min and the reaction was stopped by the addition of 100 μL/well of 1% v/v H2SO4. The absorbance of each well was read at 450 nm with a BioTek HT Synergy plate reader.
The effects of various chalcones, donepezil, donepezil analogue, and 1,3-chalcone-donepezil hybrids were tested for their ability to inhibit the bioAβ42 oligomer assembly and dissociation either alone or in combination with each other. The experiments were performed as described in the biotinyl-Aβ(1–42) (bioAβ42) oligomer assembly and dissociation assays section.

[4] = target: T2, F40 = Aβ(1–40) fibrils (Homo sapiens, UniProt P05067); assay: 3H-PIB binding competition/titration, Aβ(1–40) fibrils; conditions: compounds at 10 μM (titration 10 to 0.03 μM); 1.2 nM 3H-PIB
T2 construct: lyophilized NH4OH-treated Aβ(1–40) (cat # A-1157-02); purchased rPeptide (Watkinsville, GA, USA) A-1157-02
Method: (§2) Prior to being transferred to screw-top polypropylene vials and being stored at −75 °C, these 1 mg/mL fibril suspensions were further diluted with an equal volume of the buffer solution.
(§3) The plates were sealed and incubated for 3 h at 22 °C, without shaking, and transferred to a 96-well Millipore Multiscreen HTS Hi Flow FB (GF/B) filter plate, and filtered with a multi-well plate vacuum manifold (Millipore Corporation, Bedford, MA, USA). […] Specific binding of ^3H-PIB was determined by subtracting the non-specific binding determined in the presence of 1 μM BTA-1.
(§4) The titration of compounds with ^3H-PIB bound to Aβ(1–40) and Aβ(1–42) fibrils and AD brain extract (ADPBC) were performed to further determine the competition of our compounds for the ^3H-PIB binding site of the AD brain. The experiments were performed as described in the ^3H-PIB binding assays of Section 3.4.3 with the use of a concentration range of 10 to 0.03 μM for the compounds tested.

[5] = target: T3, F42 = Aβ(1–42) fibrils (Homo sapiens, UniProt P05067); assay: 3H-PIB binding competition/titration, Aβ(1–42) fibrils; conditions: compounds at 10 μM (titration 10 to 0.03 μM); 1.2 nM 3H-PIB
T3 construct: Aβ(1–42) (cat # A-1167-02) purchased from rPeptide; purchased rPeptide (Watkinsville, GA, USA) A-1167-02
Method: as §2, §3, §4

[6] = tested on: ADPBC (Alzheimer's disease PIB binding complex); assay: 3H-PIB binding competition/titration, ADPBC; design: species or system Human; conditions: compounds at 10 μM (titration 10 to 0.03 μM); 1.2 nM 3H-PIB
Method: Human AD brain frontal cortical tissue (from the Sanders-Brown Center on Aging Alzheimer’s Disease Center Brain Bank at the University of Kentucky) was processed as follows.
as §3, §4

[7] = read-out: EC50 against bioAβ42 oligomer assembly

Chain of EfBChE (BChE from Equus ferus) (P81908 whole entry): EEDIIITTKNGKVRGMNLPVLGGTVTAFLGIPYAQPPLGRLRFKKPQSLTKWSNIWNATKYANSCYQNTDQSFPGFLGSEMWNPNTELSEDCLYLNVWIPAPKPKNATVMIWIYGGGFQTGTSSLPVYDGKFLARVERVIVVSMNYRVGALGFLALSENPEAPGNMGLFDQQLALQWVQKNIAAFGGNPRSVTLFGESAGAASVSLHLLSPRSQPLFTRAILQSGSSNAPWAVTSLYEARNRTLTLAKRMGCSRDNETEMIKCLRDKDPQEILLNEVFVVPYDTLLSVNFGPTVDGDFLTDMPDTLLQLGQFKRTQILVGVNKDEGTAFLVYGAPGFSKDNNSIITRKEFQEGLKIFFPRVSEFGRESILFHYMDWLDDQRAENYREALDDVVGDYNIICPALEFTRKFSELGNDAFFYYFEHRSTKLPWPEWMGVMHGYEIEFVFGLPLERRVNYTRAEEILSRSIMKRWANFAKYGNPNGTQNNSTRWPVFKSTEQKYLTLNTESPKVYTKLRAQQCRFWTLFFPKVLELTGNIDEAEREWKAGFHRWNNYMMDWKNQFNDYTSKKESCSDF
T1 sequence (P05067 672-713): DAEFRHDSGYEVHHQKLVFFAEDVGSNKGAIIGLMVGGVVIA
Chain of EeAChE (AChE from Electrophorus electricus) (O42275 24-633): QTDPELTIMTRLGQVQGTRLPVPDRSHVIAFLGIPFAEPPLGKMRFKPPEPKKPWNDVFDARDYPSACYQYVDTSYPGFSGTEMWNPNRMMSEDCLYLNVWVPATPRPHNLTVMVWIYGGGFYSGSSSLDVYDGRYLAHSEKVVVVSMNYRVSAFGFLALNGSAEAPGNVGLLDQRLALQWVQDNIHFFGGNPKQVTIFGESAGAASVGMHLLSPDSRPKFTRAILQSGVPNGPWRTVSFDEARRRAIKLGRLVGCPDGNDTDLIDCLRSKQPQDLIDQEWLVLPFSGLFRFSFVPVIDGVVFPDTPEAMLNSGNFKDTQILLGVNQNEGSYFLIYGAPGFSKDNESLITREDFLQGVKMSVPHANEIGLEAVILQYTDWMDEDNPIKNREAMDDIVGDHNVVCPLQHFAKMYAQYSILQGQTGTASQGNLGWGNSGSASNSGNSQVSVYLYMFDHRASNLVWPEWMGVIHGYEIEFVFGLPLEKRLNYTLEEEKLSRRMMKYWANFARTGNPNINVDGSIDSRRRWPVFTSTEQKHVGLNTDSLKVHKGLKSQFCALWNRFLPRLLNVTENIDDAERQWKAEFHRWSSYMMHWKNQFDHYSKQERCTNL
T2 sequence (P05067 672-711): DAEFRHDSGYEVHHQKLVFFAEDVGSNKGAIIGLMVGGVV
T3 sequence (P05067 672-713): as the sequence (P05067 672-713) above

Row | Compound | IC50 [1] | selectivity index (SI) [1] | IC50 [2] | bioAβ42 oligomer assembly inhibition (in words) [3] | EC50 [3, 7] | displacement of 3H-PIB from F40 (in words) [4] | displacement of 3H-PIB from F42 (in words) [5] | EC50 ([3]; EC50 against bioAβ42 oligomer assembly) | displacement of 3H-PIB from ADPBC (in words) [6]
1 | COc1cc2c(cc1OCCCCCCOc1cccc(C(=O)/C=C/c3ccc(N(C)C)cc3)c1)C(=O)C(CC1CCN(Cc3ccccc3)CC1)C2 (centres unmarked) [15c, (E)-2-((1-Benzylpiperidin-4-Yl)Methyl)-6-((6-(3-(3-(4-(Dimethylamino)Phenyl)Acryloyl)Phenoxy)Hexyl)Oxy)-5-Methoxy-2,3-Dihydro-1H-Inden-1-One] | 1220 ± 180 nM | ≈3.3 | ~4000 nM | better inhibition of bioAβ42 oligomer assembly | 8.67 ± 0.15 µM | – | – | – | –
2 | COc1cc2c(cc1OCCCCCCCCOc1cccc(C(=O)/C=C/c3ccc(N(C)C)cc3)c1)C(=O)C(CC1CCN(Cc3ccccc3)CC1)C2 (centres unmarked) [15d, (E)-2-((1-Benzylpiperidin-4-Yl)Methyl)-6-((8-(3-(3-(4-(Dimethylamino)Phenyl)Acryloyl)Phenoxy)Octyl)Oxy)-5-Methoxy-2,3-Dihydro-1H-Inden-1-One] | 1220 ± 130 nM | ≈1.6 | ~2000 nM | better inhibition of bioAβ42 oligomer assembly | 9.67 ± 1.15 µM | – | – | – | –
3 | COc1cc2c(cc1OCCCCCCCCCCOc1cccc(C(=O)/C=C/c3ccc(N(C)C)cc3)c1)C(=O)C(CC1CCN(Cc3ccccc3)CC1)C2 (centres unmarked) [15e, (E)-2-((1-Benzylpiperidin-4-Yl)Methyl)-6-((10-(3-(3-(4-(Dimethylamino)Phenyl)Acryloyl)Phenoxy)Decyl)Oxy)-5-Methoxy-2,3-Dihydro-1H-Inden-1-One] | 1820 ± 450 nM | ≈5.5 | ~10000 nM | did not prevent bioAβ42 oligomerization | 31.7 µM and > 12 µM | – | – | – | –
4 | COc1cc2c(cc1OCCCCCCCCCCCCOc1cccc(C(=O)/C=C/c3ccc(N(C)C)cc3)c1)C(=O)C(CC1CCN(Cc3ccccc3)CC1)C2 (centres unmarked) [15f, (E)-2-((1-Benzylpiperidin-4-Yl)Methyl)-6-((12-(3-(3-(4-(Dimethylamino)Phenyl)Acryloyl)Phenoxy)Dodecyl)Oxy)-5-Methoxy-2,3-Dihydro-1H-Inden-1-One] | 1670 ± 800 nM | >60 | > 100000 nM | did not prevent bioAβ42 oligomerization | 45.3 µM and > 12 µM | – | – | – | –
5 | COc1cc2c(cc1OCCOc1ccc(C(=O)/C=C/c3ccc(N(C)C)cc3)cc1)C(=O)C(CC1CCN(Cc3ccccc3)CC1)C2 (centres unmarked) [16a, (E)-2-((1-Benzylpiperidin-4-Yl)Methyl)-6-(2-(4-(3-(4-(Dimethylamino)Phenyl)Acryloyl)Phenoxy)Ethoxy)-5-Methoxy-2,3-Dihydro-1H-Inden-1-One] | 70 ± 10 nM | ≈1.4 | ~100 nM | better inhibition of bioAβ42 oligomer assembly | – | better affinity for F40 and F42 than 16b, 16c, 16d, 16e, and 16f | better affinity for F40 and F42 than 16b, 16c, 16d, 16e, and 16f | 9.37 ± 2.1 µM | –
6 | COc1cc2c(cc1OCCCCOc1ccc(C(=O)/C=C/c3ccc(N(C)C)cc3)cc1)C(=O)C(CC1CCN(Cc3ccccc3)CC1)C2 (centres unmarked) [16b, (E)-2-((1-Benzylpiperidin-4-Yl)Methyl)-6-(4-(4-(3-(4-(Dimethylamino)Phenyl)Acryloyl)Phenoxy)Butoxy)-5-Methoxy-2,3-Dihydro-1H-Inden-1-One] | 140 ± 20 nM | ≈3.6 | ~500 nM | better inhibition of bioAβ42 oligomer assembly | 2 ± 0.2 µM | – | – | – | –
7 | COc1cc2c(cc1OCCCCCCOc1ccc(C(=O)/C=C/c3ccc(N(C)C)cc3)cc1)C(=O)C(CC1CCN(Cc3ccccc3)CC1)C2 (centres unmarked) [16c, (E)-2-((1-Benzylpiperidin-4-Yl)Methyl)-6-((6-(4-(3-(4-(Dimethylamino)Phenyl)Acryloyl)Phenoxy)Hexyl)Oxy)-5-Methoxy-2,3-Dihydro-1H-Inden-1-One] | ~500 nM | ≈1.2 | ~600 nM | better inhibition of bioAβ42 oligomer assembly | 2.6 ± 0.46 µM | – | – | – | –
8 | COc1cc2c(cc1OCCCCCCCCOc1ccc(C(=O)/C=C/c3ccc(N(C)C)cc3)cc1)C(=O)C(CC1CCN(Cc3ccccc3)CC1)C2 (centres unmarked) [16d, (E)-2-((1-Benzylpiperidin-4-Yl)Methyl)-6-((8-(4-(3-(4-(Dimethylamino)Phenyl)Acryloyl)Phenoxy)Octyl)Oxy)-5-Methoxy-2,3-Dihydro-1H-Inden-1-One] | 520 ± 60 nM | ≈1.9 | ~1000 nM | better inhibition of bioAβ42 oligomer assembly | 4.13 ± 0.15 µM | – | – | – | –
9 | COc1cc2c(cc1OCCCCCCCCCCOc1ccc(C(=O)/C=C/c3ccc(N(C)C)cc3)cc1)C(=O)C(CC1CCN(Cc3ccccc3)CC1)C2 (centres unmarked) [16e, (E)-2-((1-Benzylpiperidin-4-Yl)Methyl)-6-((10-(4-(3-(4-(Dimethylamino)Phenyl)Acryloyl)Phenoxy)Decyl)Oxy)-5-Methoxy-2,3-Dihydro-1H-Inden-1-One] | 1380 ± 180 nM | – | ~5000 nM | did not prevent bioAβ42 oligomerization | 9.73 ± 0.55 µM | – | – | – | ADPBC affinity comparable to that of 16a
10 | COc1cc2c(cc1OCCCCCCCCCCCCOc1ccc(C(=O)/C=C/c3ccc(N(C)C)cc3)cc1)C(=O)C(CC1CCN(Cc3ccccc3)CC1)C2 (centres unmarked) [16f, (E)-2-((1-Benzylpiperidin-4-Yl)Methyl)-6-((12-(4-(3-(4-(Dimethylamino)Phenyl)Acryloyl)Phenoxy)Dodecyl)Oxy)-5-Methoxy-2,3-Dihydro-1H-Inden-1-One] | > 100000 nM | – | > 100000 nM | did not prevent bioAβ42 oligomerization | 24.1 µM and > 12 µM | – | – | – | ADPBC affinity comparable to that of 16a
11 | CN(C)c1ccc(/C=C/C(=O)c2ccc(O)cc2)cc1 [compound 6, (E)-3-(4-(Dimethylamino)Phenyl)-1-(4-Hydroxyphenyl)Prop-2-En-1-One] | – | – | – | – | > 50 µM | – | – | – | –
